Assays:
[1] = Pharmacokinetics of Tac in rats alone or co-administered with deoxyschizandrin or Wuzhi capsule (UHPLC-MS/MS of plasma); type: in vivo, SD rats; details: for AUMC0→t / AUC(0-inf) / AUC(0-t) / Cmax / MRT / Tmax / half-life: rat plasma; for AUC(0-inf) / AUC(0-t) / Cmax / MRT / Tmax / half-life: male, SD, rat, plasma
Description: The mobile phase A was acetonitrile, and mobile phase B was 0.1% formic acid in water, and the initial mobile phase of gradient elution program was consisted of 60% phase A and 40% phase B. The sample injection volume was set at 10 μL. Gradient elution program was supplied in Supplementary Table S1.
The mass spectrometry detection was achieved on an Agilent 6460A mass spectrometer with ESI source. […] The settings of the mass spectrometer source were as follows: capillary voltage 4,000 V, sheath gas flow 12 L/min, temperature 400°C, dry gas (nitrogen) flow 10 L/min and temperature 350°C, nebulizer pressure 45 psi. All analytes were detected in positive ionization mode. Collision gas (high purity liquid nitrogen) was set at 0.25 MPa. The structures of both two analytes and IS are display in Figure 1.
The pretreatment was performed for the plasma sample by one-step protein precipitation, Briefly, 100 μL sample was transferred into a 1.5 mL EP tube prior to adding with 300 μL methanol(containing 200 ng/mL IS). The mixture was vortex-mixed for 30 s before centrifugation at 17,400 g for 10 min at room temperature, and 100 μL of the supernatant was diluted with 100 μL of acetonitrile (v/v, 1:1) Then, a 10 μL aliquoted of diluted solution was injected into the UHPLC-MS/MS system for analysis.
The protocol of the animal study was approved by the Experimental Animal Ethics Committee of the Shanghai University of Traditional Chinese Medicine. Specific Pathogen Free (SPF) grade SD rats, male, 8 weeks old, 200–250 g, were obtained from the animal experiment center of Shanghai University of Traditional Chinese Medicine. After passing quarantine, the rats were adaptive fed for 2 days. Rats were fasted for 12–14 h, followed by the initiation of pharmacokinetic study of Tac and deoxyschizandrin. This animal study was carried out in accordance with the National Institutes of Health Guide for the Care and Use of Laboratory animals.
In this study, 42 rats were divided equally into seven groups of six rats each, numbered NG2201-NG2207. Among them, the NG2201 and NG2202 group was dosed with 150 mg/kg deoxyschizandrin alone to study the PK of deoxyschizandrin in rats after single and multiple doses; the NG2203 group was administrate dosed with 1.0 mg/kg of Tac; the NG2204-NG2206 groups were dosed with 75, 150, and 300 mg/kg of deoxyschizandrin plus 1.0 mg/kg Tac, respectively, and the NG2207 group was dosed with the Wuzhi capsule (approximately equal to 150 mg/kg of deoxyschizandrin) plus 1.0 mg/kg of Tac ([Teng et al., 2022]). The detailed dosing regimen is shown in Table 2, and all dose in this experiment were calculated according to clinical dose. Blood samples (approximately 300 μL for each) for PK analysis were collected into lithium–heparin tubes. The plasma sampling schedules are outlined below: Blood samples were drawn pre-dose, at 5, 10, 20 and 30 min, and at 1, 1.5, 2, 4, 8 and 24 h after drug administration. The blood samples were centrifuged at 5,000 g for 15 min at 4°C to collect plasma samples, which were placed −80 refrigerator.
The rat plasma collected from each group was pretreated according to the method in section 2.5, and exposure levels of Tac and deoxyschizandrin were determined using the above established UHPLC-MS/MS method and the PKs were calculated using DAS software using non-compartment model (version 2.0, China Pharmacological Society). The data were presented as mean ± SD.

[2] = Stability of the two analytes in rat plasma under different storage conditions; type: in vitro ADME; details: n=5
Description: To prepare the stock solution, approximately 2.00 mg of Tac, deoxyschizandrin and IS were accurately weighed and dissolved in methanol, respectively. The stock solutions of Tac and deoxyschizandrin with a final concentration of 1.00 mg/mL was obtained, and the IS stock solution was diluted to 100.00 ng/mL using methanol before use. The stock solutions were aliquoted and stored at −80°C. Combined working solutions were prepared by diluting the stock solution using 10% aqueous methanol at the following concentrations: 5.00, 10.00, 20.00, 50.00, 100.00, 200.00, 500.00, 1,000.00, and 2,000.00 ng/mL. Blank rat plasma was used to prepare the calibration standards. Quality-control (QC) samples of two analytes were prepared separately in the same manner at three concentrations, namely, 10 (low concentration), 100 (middle), 1,000 ng/mL (high), and all QC samples were stored at −80°C.
The methodology validation was completed according to FDA guidelines and Chinese Pharmacopoeia (2015 edition), and the linearity, inter- and intra-precision and accuracy, matrix effect and extraction recovery, stability and specificity of this method were validated according to previous study ([Lu et al., 2022]; [Wang et al., 2022]; [Shu et al., 2016]).

[3] = parameters: method as in Abushammala, 2021; details: ref Abushammala, 2021; cited from earlier work
[4] = 1 mg/kg, NG2203: 1.0 mg/kg of Tac alone
[5] = 1 mg/kg, NG2204: 1.0 mg/kg of Tac plus 75 mg/kg deoxyschizandrin
[6] = 1 mg/kg, NG2205: 1.0 mg/kg of Tac plus 150 mg/kg deoxyschizandrin
[7] = 1 mg/kg, NG2206: 1.0 mg/kg of Tac plus 300 mg/kg deoxyschizandrin
[8] = 1 mg/kg, NG2207: 1.0 mg/kg of Tac plus Wuzhi capsule (equivalent to 150 mg/kg deoxyschizandrin)
[9] = 1 mg/kg, Tac 1 mg/kg alone (NG2203)
[10] = 1.0 mg/kg of Tac plus Wuzhi capsule (equivalent to 150 mg/kg deoxyschizandrin)

increase of C max of Tac after co-administered deoxyschizandrin ([1]; 75, 150, 300 mg/kg deoxyschizandrin plus 1 mg/kg Tac vs Tac alone, rats): 3-4 fold
AUMC0→t ([1]; NG2203: 1.0 mg/kg of Tac alone): 613.05 ± 182.15 ng. h2/mL
AUMC0→t ([1]; NG2204: 1.0 mg/kg of Tac plus 75 mg/kg deoxyschizandrin): 2107.22 ± 701.25 ng. h2/mL
AUMC0→t ([1]; NG2205: 1.0 mg/kg of Tac plus 150 mg/kg deoxyschizandrin): 1915.12 ± 621.91 ng. h2/mL
AUMC0→t ([1]; NG2206: 1.0 mg/kg of Tac plus 300 mg/kg deoxyschizandrin): 3,315.05 ± 1,100.65 ng. h2/mL
AUMC0→t ([1]; NG2207: 1.0 mg/kg of Tac plus Wuzhi capsule (equivalent to 150 mg/kg deoxyschizandrin)): 2395.69 ± 1,225.18 ng. h2/mL
mean C max lower with Wuzhi capsule compared with deoxyschizandrin ([1]; Tac 1.0 mg/kg plus Wuzhi capsule vs plus 150 mg/kg deoxyschizandrin, rats): 11.23 ng/mL
AUC(0-inf) [1, 4]: 105 ± 31.3 ng·h/mL
AUC(0-t) [1, 4]: 95.1 ± 32.6 ng·h/mL
Cmax [1, 4]: 14.3 ± 4.73 ng/mL
MRT [1, 4]: 6.54 ± 0.55 h
Tmax [1, 4]: 1.33 ± 0.52 h
half-life [1, 4]: 7.3 ± 3.06 h
AUC(0-inf) [1, 5]: 351 ± 117 ng·h/mL
AUC(0-t) [1, 5]: 314 ± 99.4 ng·h/mL
Cmax [1, 5]: 43.2 ± 13.7 ng/mL
MRT [1, 5]: 6.69 ± 0.25 h
Tmax [1, 5]: 1.17 ± 0.41 h
half-life [1, 5]: 7.31 ± 1.04 h
AUC(0-inf) [1, 6]: 331 ± 98 ng·h/mL
AUC(0-t) [1, 6]: 315 ± 92.2 ng·h/mL
Cmax [1, 6]: 54.5 ± 14.4 ng/mL
MRT [1, 6]: 6.02 ± 0.53 h
Tmax [1, 6]: 1.08 ± 0.49 h
half-life [1, 6]: 5.04 ± 1.95 h
AUC(0-inf) [1, 7]: 534 ± 176 ng·h/mL
AUC(0-t) [1, 7]: 486 ± 149 ng·h/mL
Cmax [1, 7]: 67.4 ± 18.6 ng/mL
MRT [1, 7]: 6.76 ± 0.31 h
Tmax [1, 7]: 0.75 ± 0.27 h
half-life [1, 7]: 6.59 ± 1.62 h
AUC(0-inf) [1, 8]: 388 ± 217 ng·h/mL
AUC(0-t) [1, 8]: 340 ± 193 ng·h/mL
Cmax [1, 8]: 43.2 ± 21.9 ng/mL
MRT [1, 8]: 7.23 ± 1.04 h
Tmax [1, 8]: 1.5 ± 0.55 h
half-life [1, 8]: 8.27 ± 2.2 h
AUC(0-inf) [1, 9]: 105 ± 31.3 ng·h/mL
AUC(0-t) [1, 9]: 95.1 ± 32.6 ng·h/mL
AUC(0-t) ([1]; 1 mg/kg, Tac alone (NG2203)): 95.1 ± 32.6 ng·h/mL
AUC(0-inf) [1, 10]: 388 ± 217 ng·h/mL
AUC(0-t) [1, 10]: 340 ± 193 ng·h/mL
AUC(0-t) ([1]; Tac after co-administration of deoxyschizandrin (NG2205)): 315 ± 92.2 ng·h/mL
AUC(0-t) ([1]; Tac co-administrated with deoxyschizandrin (NG2205)): 315 ± 92.2 ng·h/mL
Auto-sampler stability (24h, 4℃) Mean ± SD ([2]; Nominal Conc. 10 ng/mL): 10.23±0.51
Bench-top stability (8h, RT) Mean ± SD ([2]; Nominal Conc. 10 ng/mL): 10.39±0.41
Frozen-thaw stability (3 times) Mean ± SD ([2]; Nominal Conc. 10 ng/mL): 10.55±0.54
Long-term stability (1 month, -80℃) Mean ± SD ([2]; Nominal Conc. 10 ng/mL): 10.35±0.14
Auto-sampler stability (24h, 4℃) Mean ± SD ([2]; Nominal Conc. 100 ng/mL): 103.90±2.74
Bench-top stability (8h, RT) Mean ± SD ([2]; Nominal Conc. 100 ng/mL): 102.33±1.53
Frozen-thaw stability (3 times) Mean ± SD ([2]; Nominal Conc. 100 ng/mL): 110.23±5.21
Long-term stability (1 month, -80℃) Mean ± SD ([2]; Nominal Conc. 100 ng/mL): 101.09±1.01
Auto-sampler stability (24h, 4℃) Mean ± SD ([2]; Nominal Conc. 1000 ng/mL): 1010.05±13.85
Bench-top stability (8h, RT) Mean ± SD ([2]; Nominal Conc. 1000 ng/mL): 1009.93±11.80
Frozen-thaw stability (3 times) Mean ± SD ([2]; Nominal Conc. 1000 ng/mL): 1025.45±12.50
Long-term stability (1 month, -80℃) Mean ± SD ([2]; Nominal Conc. 1000 ng/mL): 1008.72±11.30
SMILES: C=CC[C@@H]1/C=C(\C)C[C@H](C)C[C@H](OC)[C@H]2O[C@@](O)(C(=O)C(=O)N3CCCC[C@H]3C(=O)O[C@H](/C(C)=C/[C@@H]3CC[C@@H](O)[C@H](OC)C3)[C@H](C)[C@@H](O)CC1=O)[C@H](C)C[C@@H]2OC [Tac, Tacrolimus]
average bioavailability [3]: 25%
